According to PubChem BioAssay AID248 (DTP/NCI, 2004):
Where “and” joins values, the source holds several entries; their conditions need not be identical. Equal entries are not always repeated. Inconclusive results and toxic doses are left out.

System: L1210 leukemia ip in BDF1 mice, survival T/C
Test: NCI In Vivo Anticancer Drug Screen. Data for tumor model L1210 Leukemia (intraperitoneal) in B6D2F1 (BDF1) mice
Details: endpoint: mean survival time, higher = longer survival
Outline: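 Transplantable tumor model; survival measured in treated vs vehicle control mice. Value = treated/control.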

[1] = dose: 100.0 mg/kg/injection, schedule: Q01DX009 (ip), vehicle: Klucel (hydroxypropylcellulose) (HPC)
[2] = dose: 100.0 mg/kg/injection, schedule: Q04DX003 (ip), vehicle: Klucel (hydroxypropylcellulose) (HPC)
[3] = dose: 200.0 mg/kg/injection, schedule: Q01DX009 (ip), vehicle: Klucel (hydroxypropylcellulose) (HPC)
[4] = dose: 200.0 mg/kg/injection, schedule: Q04DX003 (ip), vehicle: Klucel (hydroxypropylcellulose) (HPC)
[5] = dose: 400.0 mg/kg/injection, schedule: Q01DX009 (ip), vehicle: Klucel (hydroxypropylcellulose) (HPC)
[6] = dose: 400.0 mg/kg/injection, schedule: Q04DX003 (ip), vehicle: Klucel (hydroxypropylcellulose) (HPC)
[7] = dose: 100.0 mg/kg/injection, schedule: Q01DX001 (ip), vehicle: carboxymethylcellulose (CMC)
[8] = dose: 200.0 mg/kg/injection, schedule: Q01DX001 (ip), vehicle: carboxymethylcellulose (CMC)
[9] = dose: 400.0 mg/kg/injection, schedule: Q01DX001 (ip), vehicle: carboxymethylcellulose (CMC)
[10] = dose: 100.0 mg/kg/injection, schedule: Q04DX003 (ip), vehicle: saline with Tween-80
[11] = dose: 200.0 mg/kg/injection, schedule: Q04DX003 (ip), vehicle: saline with Tween-80
[12] = dose: 100.0 mg/kg/injection, schedule: Q04DX003 (ip), vehicle: saline
[13] = dose: 200.0 mg/kg/injection, schedule: Q04DX003 (ip), vehicle: saline
[14] = dose: 400.0 mg/kg/injection, schedule: Q04DX003 (ip), vehicle: saline
[15] = dose: 100.0 mg/kg/injection, schedule: Q01DX001 (ip), vehicle: Klucel (hydroxypropylcellulose) (HPC)
[16] = dose: 200.0 mg/kg/injection, schedule: Q01DX001 (ip), vehicle: Klucel (hydroxypropylcellulose) (HPC)
[17] = dose: 400.0 mg/kg/injection, schedule: Q01DX001 (ip), vehicle: Klucel (hydroxypropylcellulose) (HPC)

CC(C)(C)c1nc2cc(Cl)c(Cl)cc2[nH]1
T/C (dose: 75.0 mg/kg/injection, schedule: Q01DX001 (ip), vehicle: other): 102 % of control | T/C (dose: 75.0 mg/kg/injection, schedule: Q01DX009 (ip), vehicle: saline with Tween-80): 96 % of control | T/C (dose: 75.0 mg/kg/injection, schedule: Q04DX003 (ip), vehicle: saline with Tween-80): 103 % of control | T/C (dose: 150.0 mg/kg/injection, schedule: Q01DX001 (ip), vehicle: other): 96 % of control | T/C (dose: 150.0 mg/kg/injection, schedule: Q01DX009 (ip), vehicle: saline with Tween-80): 90 % of control | T/C (dose: 150.0 mg/kg/injection, schedule: Q04DX003 (ip), vehicle: saline with Tween-80): 110 % of control | T/C (dose: 300.0 mg/kg/injection, schedule: Q01DX001 (ip), vehicle: other): 109 % of control | T/C (dose: 300.0 mg/kg/injection, schedule: Q01DX009 (ip), vehicle: saline with Tween-80): 103 % of control | T/C (dose: 300.0 mg/kg/injection, schedule: Q04DX003 (ip), vehicle: saline with Tween-80): 107 % of control

BrC1C2CC3C1C3C2c1ccccc1 (stereo unspecified)
T/C [1]: 117 % of control | T/C [2]: 103 % of control | T/C [3]: 109 % of control | T/C [4]: 107 % of control | T/C [5]: 107 % of control | T/C [6]: 103 % of control

O=C(NCCCCNC(=O)Nc1ccc(C2=NCCN2)cc1)Nc1ccc(C2=NCCN2)cc1
T/C (dose: 8.0 mg/kg/injection, schedule: Q01DX Z (ip), vehicle: carboxymethylcellulose (CMC)): 88 % of control | T/C (dose: 16.0 mg/kg/injection, schedule: Q01DX Z (ip), vehicle: carboxymethylcellulose (CMC)): 92 % of control | T/C (dose: 31.0 mg/kg/injection, schedule: Q01DX Z (ip), vehicle: carboxymethylcellulose (CMC)): 101 % of control | T/C (dose: 62.0 mg/kg/injection, schedule: Q01DX Z (ip), vehicle: carboxymethylcellulose (CMC)): 123 % of control | T/C (dose: 125.0 mg/kg/injection, schedule: Q01DX Z (ip), vehicle: carboxymethylcellulose (CMC)): 112 % of control

O=C(O)C1(C(=O)O)C=CCCC1
T/C (dose: 100.0 mg/kg/injection, schedule: Q01DX009 (ip), vehicle: saline + alcohol): 89 % of control | T/C [2]: 100 % of control | T/C (dose: 200.0 mg/kg/injection, schedule: Q01DX009 (ip), vehicle: saline + alcohol): 102 % of control | T/C [4]: 97 % of control | T/C [6]: 107 % of control

CCCC(=O)c1c(C)cc(C)cc1C
T/C [1]: 97 % of control | T/C [3]: 108 % of control | T/C [5]: 97 % of control

O=S(=O)(O)CCS(=O)(=O)O
T/C (dose: 50.0 mg/kg/injection, schedule: Q01DX001 (ip), vehicle: carboxymethylcellulose (CMC)): 97 % of control | T/C [7]: 100 % of control | T/C [8]: 97 % of control | T/C [9]: 97 % of control

Cc1cccc2cccnc12
T/C (dose: 100.0 mg/kg/injection, schedule: Q01DX001 (ip), vehicle: other): 104 % of control | T/C (dose: 200.0 mg/kg/injection, schedule: Q01DX001 (ip), vehicle: other): 106 % of control | T/C (dose: 400.0 mg/kg/injection, schedule: Q01DX001 (ip), vehicle: other): 98 % of control

CCOC(=O)C(C)Oc1ccccc1[N+](=O)[O-] (stereo unspecified)
T/C [1]: 93 % of control | T/C [3]: 102 % of control | T/C [5]: 102 % of control

CC(O)CNC(=O)C(C)O (stereo unspecified)
T/C [10]: 98 % of control | T/C [11]: 97 % of control | T/C (dose: 400.0 mg/kg/injection, schedule: Q04DX003 (ip), vehicle: saline with Tween-80): 102 % of control

O=C(Nc1ccc(OCc2ccccc2)cc1)c1ccc([N+](=O)[O-])s1
T/C (dose: 400.0 mg/kg/injection, schedule: Q01DX005 (ip), vehicle: water): 89 % of control

O=C(CSc1ccc([N+](=O)[O-])cn1)c1ccc(Br)cc1
T/C [12]: 102 % of control | T/C [13]: 98 % of control | T/C [14]: 102 % of control

COc1ccc2c(ccc3ccc4ccccc4c32)c1
T/C [15]: 105 % of control | T/C [16]: 102 % of control | T/C [17]: 100 % of control

O=C(Cn1ccc(O)cc1=O)N1CCC2(CC1)SSC1(CCN(C(=O)Cn3ccc(O)cc3=O)CC1)S2
T/C (dose: 100.0 mg/kg/injection, schedule: Q01DX009 (ip), vehicle: saline): 86 % of control | T/C [12]: 102 % of control | T/C (dose: 200.0 mg/kg/injection, schedule: Q01DX009 (ip), vehicle: saline): 93 % of control | T/C [13]: 94 % of control | T/C (dose: 400.0 mg/kg/injection, schedule: Q01DX009 (ip), vehicle: saline): 94 % of control | T/C [14]: 88 % of control

C1OC1CN1CCC(C2CCN(CC3CO3)CC2)CC1 (stereo unspecified)
T/C (dose: 0.61 mg/kg/injection, schedule: Q01DX009 (ip), vehicle: saline): 114 % of control | T/C (dose: 2.1 mg/kg/injection, schedule: Q01DX009 (ip), vehicle: saline): 156 % of control | T/C (dose: 2.9 mg/kg/injection, schedule: Q01DX001 (ip), vehicle: saline): 121 % of control | T/C (dose: 3.5 mg/kg/injection, schedule: Q01DX009 (ip), vehicle: saline): 120 % of control | T/C (dose: 4.3 mg/kg/injection, schedule: Q01DX001 (ip), vehicle: saline): 115 % of control | T/C (dose: 4.4 mg/kg/injection, schedule: Q01DX001 (ip), vehicle: saline): 159 % of control | T/C (dose: 6.6 mg/kg/injection, schedule: Q01DX001 (ip), vehicle: saline): 122 % of control | T/C (dose: 15.0 mg/kg/injection, schedule: Q01DX001 (ip), vehicle: saline): 160 % of control | T/C (dose: 15.0 mg/kg/injection, schedule: Q01DX009 (ip), vehicle: saline): 150 % of control and 152 % of control | T/C (dose: 50.0 mg/kg/injection, schedule: Q01DX001 (ip), vehicle: saline): 164 % of control | T/C (dose: 60.0 mg/kg/injection, schedule: Q01DX001 (ip), vehicle: saline): 156 % of control | T/C (dose: 60.0 mg/kg/injection, schedule: Q01DX009 (ip), vehicle: saline): 91 % of control

COc1ccccc1NC(=S)N(C)C
T/C [10]: 96 % of control | T/C [11]: 93 % of control

O=C(/C=C/c1ccncc1)c1cccc2ccccc12
T/C [10]: 89 % of control | T/C [11]: 97 % of control

CCOC(=O)C1(c2ccccc2)CCN(CC(O)COc2cc(C)ccc2C(C)C)CC1 (stereo unspecified)
T/C (dose: 25.0 mg/kg/injection, schedule: Q01DX009 (ip), vehicle: Klucel (hydroxypropylcellulose) (HPC)): 91 % of control | T/C (dose: 50.0 mg/kg/injection, schedule: Q01DX009 (ip), vehicle: Klucel (hydroxypropylcellulose) (HPC)): 100 % of control | T/C [1]: 93 % of control and 97 % of control

CC(C)CCCC(C)C1CCC2C3CC=C4CC(O)CCC4(C)C3CCC12C (stereo unspecified) (tested in a mixture with another compound)
T/C (dose: 50.0 mg/kg/injection, schedule: Q01DX009 (ip), vehicle: water): 94 % of control | T/C (dose: 100.0 mg/kg/injection, schedule: Q01DX001 (ip), vehicle: water): 102 % of control and 108 % of control | T/C (dose: 100.0 mg/kg/injection, schedule: Q01DX009 (ip), vehicle: water): 102 % of control | T/C (dose: 100.0 mg/kg/injection, schedule: Q04DX003 (ip), vehicle: water): 90 % of control | T/C (dose: 200.0 mg/kg/injection, schedule: Q01DX001 (ip), vehicle: water): 105 % of control | T/C (dose: 200.0 mg/kg/injection, schedule: Q01DX009 (ip), vehicle: water): 103 % of control | T/C (dose: 200.0 mg/kg/injection, schedule: Q04DX003 (ip), vehicle: water): 88 % of control | T/C (dose: 400.0 mg/kg/injection, schedule: Q01DX001 (ip), vehicle: water): 105 % of control | T/C (dose: 400.0 mg/kg/injection, schedule: Q04DX003 (ip), vehicle: water): 87 % of control

O=c1c(N=Nc2ccc(Cl)cc2)c(O)n(-c2ccc(I)cc2)c(=S)n1-c1ccccc1
T/C [15]: 93 % of control | T/C [16]: 104 % of control | T/C [17]: 102 % of control

O=C(NCCCl)NC1CCCCC1O (stereo unspecified)
T/C (dose: 100.0 mg/kg/injection, schedule: Q04DX002 (ip), vehicle: saline): 98 % of control | T/C (dose: 200.0 mg/kg/injection, schedule: Q04DX002 (ip), vehicle: saline): 91 % of control | T/C (dose: 400.0 mg/kg/injection, schedule: Q04DX002 (ip), vehicle: saline): 102 % of control

CC(=O)N1Cc2nc(N)nc(N)c2C1
T/C [7]: 95 % of control | T/C [8]: 104 % of control | T/C [9]: 104 % of control
